Experimental data from patent publication US6737383B1, “Herbicidal oxadiazolidines” (priority 1999, dated 2004).

Columns and labels:
bedstraw = assay: Test B pre/postemergence bedstraw; assay type: in vivo, Galium aparine
Outline: (§1)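 Test chemicals in a non-phytotoxic solvent mixture with surfactant were sprayed preemergence onto planted seeds and postemergence onto plants 2 to 18 cm tall (1- to 4-leaf stage). After twelve to sixteen days in a greenhouse, injury was visually rated against untreated controls from 0 (no effect) to 10 (complete control).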

blackgrass = assay: Test B pre/postemergence blackgrass; assay type: in vivo, Alopecurus myosuroides
Outline: as §1

surinam grass = assay: Test B pre/postemergence surinam grass; assay type: in vivo, Brachiaria decumbens
Outline: as §1

cocklebur = assay: Test B pre/postemergence cocklebur; assay type: in vivo, Xanthium strumarium
Outline: as §1

corn = assay: Test B pre/postemergence corn; assay type: in vivo, Zea mays
Outline: as §1

crabgrass = assay: Test B pre/postemergence crabgrass; assay type: in vivo, Digitaria sanguinalis
Outline: as §1

giant foxtail = assay: Test B pre/postemergence giant foxtail; assay type: in vivo, Setaria faberii
Outline: as §1

morningglory = assay: Test B pre/postemergence morningglory; assay type: in vivo, Ipomoea hederacea
Outline: as §1

pigweed = assay: Test B pre/postemergence pigweed; assay type: in vivo, Amaranthus retroflexus
Outline: as §1

rape = assay: Test B pre/postemergence rape; assay type: in vivo, Brassica napus
Outline: as §1

soybean = assay: Test B pre/postemergence soybean; assay type: in vivo, Glycine max
Outline: as §1

sugar beet = assay: Test B pre/postemergence sugar beet; assay type: in vivo, Beta vulgaris
Outline: as §1

velvetleaf = assay: Test B pre/postemergence velvetleaf; assay type: in vivo, Abutilon theophrasti
Outline: as §1

wheat = assay: Test B pre/postemergence wheat; assay type: in vivo, Triticum aestivum
Outline: as §1

wild oat = assay: Test B pre/postemergence wild oat; assay type: in vivo, Avena fatua
Outline: as §1

purple nutsedge = assay: Test B pre/postemergence purple nutsedge; assay type: in vivo, Cyperus rotundus
Outline: as §1

[1] = Postemergence, Rate 125 g/ha, scale of 0 to 10 where 0 is no effect and 10 is complete control
[2] = Preemergence, Rate 62 g/ha, scale of 0 to 10 where 0 is no effect and 10 is complete control
[3] = Preemergence, Rate 125 g/ha, scale of 0 to 10 where 0 is no effect and 10 is complete control
[4] = Preemergence, Rate 250 g/ha, scale 0 to 10 (0 no effect, 10 complete control)
[5] = Preemergence, Rate 500 g/ha, scale of 0 to 10 where 0 is no effect and 10 is complete control
[6] = Postemergence, Rate 62 g/ha, scale 0 to 10, 0 is no effect, 10 is complete control
[7] = Postemergence, Rate 250 g/ha, scale of 0 to 10, 0 is no effect, 10 is complete control
[8] = Postemergence, Rate 500 g/ha, scale of 0 to 10 where 0 is no effect and 10 is complete control

C=C(Cn1c(=O)on(C(=O)N(c2ccccc2)C(C)C)c1=O)C(C)(C)C [Compound 648] was tested, and the “Bedstraw plant response rating” value (bedstraw; [1]) was 0, the “Bedstraw plant response rating” value (bedstraw; [2]) was 0 and the “Bedstraw plant response rating” value (bedstraw; [3]) was 0. The “Plant response rating, Bedstraw” value (bedstraw; [4]) was 0, the “Plant response rating, Bedstraw” value (bedstraw; [5]) was 0 and the “Plant response rating, Blackgrass” value (blackgrass; [6]) was 0. The “Blackgrass plant response rating” value (blackgrass; [1]) was 0, the “Blackgrass plant response rating” value (blackgrass; [7]) was 0 and the “Plant response rating, Blackgrass” value (blackgrass; [8]) was 0. The “Blackgrass plant response rating” value (blackgrass; [2]) was 0, the “Blackgrass plant response rating” value (blackgrass; [3]) was 0 and the “Plant response rating, Blackgrass” value (blackgrass; [4]) was 2. The “Plant response rating, Blackgrass” value (blackgrass; [5]) was 5, the “Plant response rating, B. signalgrass” value (surinam grass; [6]) was 0 and the “Plant response rating, B. signalgrass” value (surinam grass; [1]) was 0. The “B. signalgrass plant response rating” value (surinam grass; [7]) was 0, the “Plant response rating, B. signalgrass” value (surinam grass; [8]) was 0 and the “B. signalgrass plant response rating” value (surinam grass; [2]) was 0. The “B. signalgrass plant response rating” value (surinam grass; [3]) was 0, the “Plant response rating, B. signalgrass” value (surinam grass; [4]) was 0 and the “Plant response rating, B. signalgrass” value (surinam grass; [5]) was 5. For the same molecule, the “Plant response rating, Cocklebur” value (cocklebur; [6]) was 0, the “Cocklebur plant response rating” value (cocklebur; [1]) was 0 and the “Cocklebur plant response rating” value (cocklebur; [7]) was 0. For the same molecule, the “Plant response rating, Cocklebur” value (cocklebur; [8]) was 2, the “Cocklebur plant response rating” value (cocklebur; [2]) was 0 and the “Cocklebur plant response rating” value (cocklebur; [3]) was 0. The “Plant response rating, Cocklebur” value (cocklebur; [5]) was 0, the “Plant response rating, Corn” value (corn; [6]) was 0 and the “Corn plant response rating” value (corn; [1]) was 0. For the same molecule, the “Corn plant response rating” value (corn; [7]) was 0, the “Plant response rating, Corn” value (corn; [8]) was 0 and the “Corn plant response rating” value (corn; [2]) was 0. The “Corn plant response rating” value (corn; [3]) was 0, the “Plant response rating, Corn” value (corn; [4]) was 0 and the “Plant response rating, Corn” value (corn; [5]) was 0. For the same molecule, the “Plant response rating, Crabgrass” value (crabgrass; [6]) was 0, the “Crabgrass plant response rating” value (crabgrass; [1]) was 0 and the “Crabgrass plant response rating” value (crabgrass; [7]) was 0. For the same molecule, the “Plant response rating, Crabgrass” value (crabgrass; [8]) was 7, the “Crabgrass plant response rating” value (crabgrass; [2]) was 0 and the “Crabgrass plant response rating” value (crabgrass; [3]) was 8. For the same molecule, the “Plant response rating, Crabgrass” value (crabgrass; [4]) was 9, the “Plant response rating, Crabgrass” value (crabgrass; [5]) was 9 and the “Plant response rating, Giant foxtail” value (giant foxtail; [6]) was 0. The “Giant foxtail plant response rating” value (giant foxtail; [1]) was 0, the “Giant foxtail plant response rating” value (giant foxtail; [7]) was 0 and the “Plant response rating, Giant foxtail” value (giant foxtail; [8]) was 3. For the same molecule, the “Giant foxtail plant response rating” value (giant foxtail; [2]) was 5, the “Giant foxtail plant response rating” value (giant foxtail; [3]) was 9 and the “Plant response rating, Giant foxtail” value (giant foxtail; [4]) was 9. The “Plant response rating, Giant foxtail” value (giant foxtail; [5]) was 9, the “Plant response rating, Morningglory” value (morningglory; [6]) was 6 and the “Morningglory plant response rating” value (morningglory; [1]) was 10. The “Morningglory plant response rating” value (morningglory; [7]) was 10, the “Plant response rating, Morningglory” value (morningglory; [8]) was 10 and the “Morningglory plant response rating” value (morningglory; [2]) was 0. For the same molecule, the “Morningglory plant response rating” value (morningglory; [3]) was 0, the “Plant response rating, Morningglory” value (morningglory; [4]) was 0 and the “Plant response rating, Morningglory” value (morningglory; [5]) was 0. For the same molecule, the “Plant response rating, Redroot pigweed” value (pigweed; [6]) was 0, the “Redroot pigweed plant response rating” value (pigweed; [1]) was 3 and the “Redroot pigweed plant response rating” value (pigweed; [2]) was 0. The “Redroot pigweed plant response rating” value (pigweed; [3]) was 0, the “Plant response rating, Redroot pigweed” value (pigweed; [4]) was 0 and the “Plant response rating, Redroot pigweed” value (pigweed; [5]) was 2. The “Plant response rating, Rape” value (rape; [6]) was 0, the “Rape plant response rating” value (rape; [1]) was 0 and the “Plant response rating, Rape” value (rape; [8]) was 2. The “Rape plant response rating” value (rape; [2]) was 0, the “Rape plant response rating” value (rape; [3]) was 0 and the “Plant response rating, Rape” value (rape; [4]) was 0. The “Plant response rating, Rape” value (rape; [5]) was 0, the “Plant response rating, Soybean” value (soybean; [6]) was 0 and the “Soybean plant response rating” value (soybean; [1]) was 2. The “Soybean plant response rating” value (soybean; [2]) was 0, the “Soybean plant response rating” value (soybean; [3]) was 0 and the “Plant response rating, Soybean” value (soybean; [4]) was 0. For the same molecule, the “Plant response rating, Soybean” value (soybean; [5]) was 0, the “Plant response rating, Sugarbeets” value (sugar beet; [6]) was 0 and the “Sugarbeets plant response rating” value (sugar beet; [1]) was 0. For the same molecule, the “Sugarbeets plant response rating” value (sugar beet; [2]) was 0, the “Sugarbeets plant response rating” value (sugar beet; [3]) was 0 and the “Plant response rating, Sugarbeets” value (sugar beet; [4]) was 0. The “Plant response rating, Sugarbeets” value (sugar beet; [5]) was 0, the “Plant response rating, Velvetleaf” value (velvetleaf; [6]) was 0 and the “Velvetleaf plant response rating” value (velvetleaf; [1]) was 0. The “Velvetleaf plant response rating” value (velvetleaf; [2]) was 0, the “Velvetleaf plant response rating” value (velvetleaf; [3]) was 0 and the “Plant response rating, Velvetleaf” value (velvetleaf; [4]) was 0. For the same molecule, the “Plant response rating, Velvetleaf” value (velvetleaf; [5]) was 0, the “Plant response rating, Wheat” value (wheat; [6]) was 0 and the “Wheat plant response rating” value (wheat; [1]) was 0. The “Wheat plant response rating” value (wheat; [2]) was 0, the “Wheat plant response rating” value (wheat; [3]) was 0 and the “Plant response rating, Wheat” value (wheat; [4]) was 0. The “Plant response rating, Wheat” value (wheat; [5]) was 0, the “Plant response rating, Wild oats” value (wild oat; [6]) was 0 and the “Wild oats plant response rating” value (wild oat; [1]) was 0. The “Wild oats plant response rating” value (wild oat; [2]) was 0, the “Wild oats plant response rating” value (wild oat; [3]) was 0 and the “Plant response rating, Wild oats” value (wild oat; [4]) was 0. The “Plant response rating, Wild oats” value (wild oat; [5]) was 0, the “Plant response rating, Nutsedge” value (purple nutsedge; [6]) was 0 and the “Nutsedge plant response rating” value (purple nutsedge; [1]) was 0. For the same molecule, the “Plant response rating, Nutsedge” value (purple nutsedge; [8]) was 0, the “Nutsedge plant response rating” value (purple nutsedge; [2]) was 0 and the “Nutsedge plant response rating” value (purple nutsedge; [3]) was 0. For the same molecule, the “Plant response rating, Nutsedge” value (purple nutsedge; [4]) was 0 and the “Plant response rating, Nutsedge” value (purple nutsedge; [5]) was 0.
